Laboratory results: ChEMBL document CHEMBL4145521, “Regioselective synthesis of 3,4-diaryl-5-unsubstituted isoxazoles, analogues of natural cytostatic combretastatin A4” (Eur J Med Chem, 2018)

Assays:
Assay type in all cases: functional
HT-29 [1] = test: Cytotoxicity against human HT-29 cells assessed as cell growth at 10 uM incubated for 48 hrs by sulforhodamine B assay relative to control; details: HT-29, 48 h, read-out: Activity
OVCAR-3 = test: Cytotoxicity against human OVCAR3 cells assessed as cell growth at 10 uM incubated for 48 hrs by sulforhodamine B assay relative to control; details: OVCAR-3, 48 h, read-out: Activity
NCI-H226 = test: Cytotoxicity against human NCI-H226 cells assessed as cell growth at 0.01 uM incubated for 48 hrs by sulforhodamine B assay relative to control; details: NCI-H226, 48 h, read-out: Activity
SW-620 [2] = test: Cytotoxicity against human SW620 cells assessed as cell growth at 0.01 uM incubated for 48 hrs by sulforhodamine B assay relative to control; details: SW-620, 48 h, read-out: Activity
UACC-62 [3] = test: Cytotoxicity against human UACC62 cells assessed as cell growth at 0.01 uM incubated for 48 hrs by sulforhodamine B assay relative to control; details: UACC-62, 48 h, read-out: Activity
UO-31 = test: Cytotoxicity against human UO31 cells assessed as cell growth at 100 uM incubated for 48 hrs by sulforhodamine B assay relative to control; details: UO-31, 48 h, read-out: Activity
786-0 [4] = test: Cytotoxicity against human 786-0 cells assessed as cell growth at 0.01 uM incubated for 48 hrs by sulforhodamine B assay relative to control; details: 786-0, 48 h, read-out: Activity
OVCAR-4 = test: Cytotoxicity against human OVCAR4 cells assessed as cell growth at 0.1 uM incubated for 48 hrs by sulforhodamine B assay relative to control; details: OVCAR-4, 48 h, read-out: Activity
T47D = test: Cytotoxicity against human T47D cells incubated for 48 hrs by sulforhodamine B assay
IGROV-1 = test: Cytotoxicity against human IGROV1 cells assessed as cell growth at 0.1 uM incubated for 48 hrs by sulforhodamine B assay relative to control; details: IGROV-1, 48 h, read-out: Activity
SK-MEL-28 [5] = test: Cytotoxicity against human SK-MEL-28 cells assessed as cell growth at 1 uM incubated for 48 hrs by sulforhodamine B assay relative to control; details: SK-MEL-28, 48 h, read-out: Activity
NCI-H322M [6] = test: Cytotoxicity against human NCI-H322M cells assessed as cell growth at 1 uM incubated for 48 hrs by sulforhodamine B assay relative to control; details: read-out: Activity
HL-60(TB) = test: Cytotoxicity against human HL-60(TB) cells assessed as cell growth at 0.01 uM incubated for 48 hrs by sulforhodamine B assay relative to control; details: HL-60, 48 h, read-out: Activity
SK-OV-3 = test: Cytotoxicity against human SKOV3 cells incubated for 48 hrs by sulforhodamine B assay; details: SK-OV-3, 48 h
786-0 [7] = test: Cytotoxicity against human 786-0 cells assessed as cell growth at 100 uM incubated for 48 hrs by sulforhodamine B assay relative to control; details: 786-0, 48 h, read-out: Activity
UACC-62 [8] = test: Cytotoxicity against human UACC62 cells incubated for 48 hrs by sulforhodamine B assay; details: UACC-62, 48 h
MDA-MB-435 = test: Cytotoxicity against human MDA-MB-435 cells assessed as cell growth at 100 uM incubated for 48 hrs by sulforhodamine B assay relative to control; details: MDA-MB-435, 48 h, read-out: Activity
SR = test: Cytotoxicity against human SR cells incubated for 48 hrs by sulforhodamine B assay
SW-620 [9] = test: Cytotoxicity against human SW620 cells assessed as cell growth at 1 uM incubated for 48 hrs by sulforhodamine B assay relative to control; details: SW-620, 48 h, read-out: Activity
SK-MEL-2 = test: Cytotoxicity against human SK-MEL-2 cells assessed as cell growth at 0.1 uM incubated for 48 hrs by sulforhodamine B assay relative to control; details: SK-MEL-2, 48 h, read-out: Activity
K562 = test: Cytotoxicity against human K562 cells assessed as cell growth at 10 uM incubated for 48 hrs by sulforhodamine B assay relative to control; details: K562, 48 h, read-out: Activity
SK-MEL-28 [10] = test: Cytotoxicity against human SK-MEL-28 cells assessed as cell growth at 0.01 uM incubated for 48 hrs by sulforhodamine B assay relative to control; details: SK-MEL-28, 48 h, read-out: Activity
NCI/ADR-RES = test: Cytotoxicity against human NCI/ADR-RES cells assessed as cell growth at 0.1 uM incubated for 48 hrs by sulforhodamine B assay relative to control; details: read-out: Activity
NCI-H322M [11] = test: Cytotoxicity against human NCI-H322M cells assessed as cell growth at 0.01 uM incubated for 48 hrs by sulforhodamine B assay relative to control; details: read-out: Activity
LOX IMVI = test: Cytotoxicity against human LOXIMVI cells assessed as cell growth at 10 uM incubated for 48 hrs by sulforhodamine B assay relative to control; details: read-out: Activity
A498 = test: Cytotoxicity against human A498 cells assessed as cell growth at 1 uM incubated for 48 hrs by sulforhodamine B assay relative to control; details: A498, 48 h, read-out: Activity
HCT-15 = test: Cytotoxicity against human HCT15 cells assessed as cell growth at 0.1 uM incubated for 48 hrs by sulforhodamine B assay relative to control; details: HCT-15, 48 h, read-out: Activity
M14 = test: Cytotoxicity against human M14 cells assessed as cell growth at 0.01 uM incubated for 48 hrs by sulforhodamine B assay relative to control; details: M14, 48 h, read-out: Activity
SF-295 = test: Cytotoxicity against human SF295 cells incubated for 48 hrs by sulforhodamine B assay; details: SF-295, 48 h
HT-29 [12] = test: Cytotoxicity against human HT-29 cells assessed as cell growth at 0.1 uM incubated for 48 hrs by sulforhodamine B assay relative to control; details: HT-29, 48 h, read-out: Activity
KM12 [13] = test: Cytotoxicity against human KM12 cells assessed as cell growth at 0.1 uM incubated for 48 hrs by sulforhodamine B assay relative to control; details: KM12, 48 h, read-out: Activity
KM12 [14] = test: Cytotoxicity against human KM12 cells assessed as cell growth at 1 uM incubated for 48 hrs by sulforhodamine B assay relative to control; details: KM12, 48 h, read-out: Activity
[15] = read-out: LC50 (the source's name)
[16] = read-out: pLC50 (the source's name) (converted)

With `COc1ccc(-c2nocc2-c2cc(OC)c(OC)c(OC)c2)cc1` the growth at 10 µM (HT-29 [1]) was 3%, the growth at 10 µM (OVCAR-3) was -9% and the growth at 0.01 µM (NCI-H226) was 100%. For the same molecule, the growth at 0.01 µM (SW-620 [2]) was 94%, the growth at 0.01 µM (UACC-62 [3]) was 90% and the growth at 100 µM (UO-31) was -27%. The growth at 0.01 µM (786-0 [4]) was 85%, the growth at 0.1 µM (OVCAR-4) was 73% and the LC50 (T47D; read-out: LC50) was over 100 µM. It also gave a TGI (T47D; read-out: TGI) of 86.3 µM, an LC50 (T47D; read-out: pLC50 (converted)) of over 100 µM and a TGI (T47D; read-out: pTGI (converted)) of 87.1 µM. It also gave a growth at 0.1 µM (IGROV-1) of 54%, a growth at 1 µM (SK-MEL-28 [5]) of 58% and a growth at 1 µM (NCI-H322M [6]) of 46%. For the same molecule, the growth at 0.01 µM (HL-60(TB)) was 105%, the GI50 (SK-OV-3; read-out: GI50) was 0.296 µM and the LC50 (SK-OV-3; read-out: LC50) was over 100 µM. It also gave a TGI (SK-OV-3; read-out: TGI) of over 100 µM, a GI50 (SK-OV-3; read-out: pGI50 (converted)) of 0.295 µM and an LC50 (SK-OV-3; read-out: pLC50 (converted)) of over 100 µM. The TGI (SK-OV-3; read-out: pTGI) was over 100 µM, the growth at 100 µM (786-0 [7]) was -17% and the GI50 (UACC-62 [8]; read-out: GI50) was 0.0557 µM. The LC50 (concentration killing 50% of cells) (UACC-62 [8]; read-out: LC50) was over 100 µM, the TGI (UACC-62 [8]; read-out: TGI) was 12.9 µM and the GI50 (UACC-62 [8]; read-out: pGI50 (converted)) was 0.0562 µM. It also gave an LC50 (concentration killing 50% of cells) (UACC-62 [8]; read-out: pLC50 (converted)) of over 100 µM, a TGI (UACC-62 [8]; read-out: pTGI (converted)) of 12.9 µM and a growth at 100 µM (MDA-MB-435) of -9%. For the same molecule, the GI50 (SR; read-out: GI50) was 0.0717 µM, the CC50 (SR; [15]) was over 100 µM and the TGI (SR; read-out: TGI) was 58.3 µM. The GI50 (SR; read-out: pGI50 (converted)) was 0.0724 µM, the CC50 (SR; [16]) was over 100 µM and the TGI (SR; read-out: pTGI (converted)) was 58.9 µM. For the same molecule, the growth at 1 µM (SW-620 [9]) was 21%, the growth at 0.1 µM (SK-MEL-2) was 39% and the growth at 10 µM (K562) was 9%. It also gave a growth at 0.01 µM (SK-MEL-28 [10]) of 94%, a growth at 0.1 µM (NCI/ADR-RES) of 34% and a growth at 0.01 µM (NCI-H322M [11]) of 95%. The growth at 10 µM (LOX IMVI) was 21%, the growth at 1 µM (A498) was -3% and the growth at 0.1 µM (HCT-15) was 29%. The growth at 0.01 µM (M14) was 90%, the GI50 (SF-295; read-out: GI50) was 0.0505 µM and the CC50 (SF-295; [15]) was over 100 µM. The TGI (SF-295; read-out: TGI) was 13.1 µM, the GI50 (SF-295; read-out: pGI50 (converted)) was 0.0501 µM and the CC50 (SF-295; [16]) was over 100 µM. For the same molecule, the TGI (SF-295; read-out: pTGI (converted)) was 13.2 µM, the growth at 0.1 µM (HT-29 [12]) was 13% and the growth at 0.1 µM (KM12 [13]) was 26%. The growth at 1 µM (KM12 [14]) was 20%.
